Measured values published in US7439372B2, “Therapeutic compounds” (Allergan, Inc., priority 2006, dated 2008).

What was measured:
EP2 [1] = molecular target: T1, EP2 (Homo sapiens, UniProt P43116); assay: Competition binding, [3H]PGE2, HEK 293 cells stably expressing human EP2 receptors; set-up: expressed in transfected cells; host or cells: HEK 293; details: [3H]PGE2 competition
Protocol: Competition binding experiments were performed in a medium containing Hank's balanced salt solution, Hepes 20 mM, pH 7.3, membranes (˜60 μg protein) or 2×10^5 cells from HEK 293 cells stably expressing human EP2 receptors, [^3H]PGE2 (10 nM) and various concentrations of test compounds in a total volume of 300 μl. Reaction mixtures were incubated at 23° C. for 60 min, and were filtered over Whatman GF/B filters under vacuum. Filters were washed three times with 5 ml ice-cold buffer containing 50 mM Tris/HCl (pH 7.3). Non-specific binding was estimated in the presence of excess unlabeled PGE2 (10 μM). Binding data fitted to the binding model for a single class of binding sites, using nonlinear regression analysis. IC50 values thus obtained were converted to Ki using the equation of Ki=(IC50/(1+[L]/KD) where [L] represents PGE2 concentration (10 nM) and KD the dissociation constant for [3H]PGE2 at human EP2 receptors (40 nM).
HEK-293 cells stably expressing the human or feline FP receptor, or EP1, EP2, or EP4 receptors were washed with TME buffer, scraped from the bottom of the flasks, and homogenized for 30 sec using a Brinkman PT 10/35 polytron. TME buffer was added to achieve a final 40 ml volume in the centrifuge tubes (the composition of TME is 100 mM TRIS base, 20 mM MgCl2, […]; 10N HCl is added to achieve a pH of 7.4).
The cell homogenate was centrifuged at 19000 r.p.m. for 20 min at 4° C. using a Beckman Ti-60 rotor. The resultant pellet was resuspended in TME buffer to give a final 1 mg/ml protein concentration, as determined by Biorad assay. Radioligand binding competition assays vs. [^3H-]17-phenyl PGF2α (5 nM) were performed in a 100 μl volume for 60 min. Binding reactions were started by adding plasma membrane fraction. The reaction was terminated by the addition of 4 ml ice-cold TRIS-HCl buffer and rapid filtration through glass fiber GF/B filters using a Brandel cell harvester. The filters were washed 3 times with ice-cold buffer and oven dried for one hour.
[^3H-]PGE2 (specific activity 180 Ci mmol) was used as the radioligand for EP receptors. [^3H]17-phenyl PGF2α was employed for FP receptor binding studies. Binding studies employing EP1, EP2, EP4 and FP receptors were performed in duplicate in at least three separate experiments. A 200 μl assay volume was used. Incubations were for 60 min at 25° C. and were terminated by the addition of 4 ml of ice-cold 50 mM TRIS-HCl, followed by rapid filtration through Whatman GF/B filters and three additional 4 ml washes in a cell harvester (Brandel). Competition studies were performed using a final concentration of 5 nM [^3H]-PGE2, or 5 nM [^3H] 17-phenyl PGF2α and non-specific binding determined with 10^−5M of unlabeled PGE2, or 17-phenyl PGF2α, according to receptor subtype studied.

hEP4/Gqs5 = molecular target: T2, hEP4/Gqs5 (Homo sapiens, UniProt P35408); assay: FLIPR calcium signal, HEK-293(EBNA) cells expressing hEP4/Gqs5; assay type: cell-based; details: for EC50: read-out: Ca2+ Signal-EC50(nM) EP4
T2 construct: expressed in transfected cells; host or cells: HEK-293(EBNA)
Protocol: (§1) HEK-293(EBNA) cells, stably expressing one type or subtype of recombinant human prostaglandin receptors (prostaglandin receptors expressed: hDP/Gqs5; hEP1; hEP2/Gqs5; hEP3A/Gqi5; hEP4/Gqs5; hFP; hIP; hTP), were cultured in 100 mm culture dishes in high-glucose DMEM medium containing 10% fetal bovine serum, 2 mM l-glutamine, 250 µg/ml geneticin (G418) and 200 μg/ml hygromycin B as selection markers, and 100 units/ml penicillin G, 100 µg/ml streptomycin and 0.25 μg/ml amphotericin B.
(§2) Cells were seeded at a density of 5×10^4 cells per well in Biocoat® Poly-D-lysine-coated black-wall, clear-bottom 96-well plates (Becton-Dickinson) and allowed to attach overnight in an incubator at 37° C. Cells were then washed two times with HBSS-HEPES buffer (Hanks Balanced Salt Solution without bicarbonate and phenol red, 20 mM HEPES, pH 7.4) using a Denley Cellwash plate washer (Labsystems). After 45 minutes of dye-loading in the dark, using the calcium-sensitive dye Fluo-4 […] at a final concentration of 2 μM, plates were washed four times with HBSS-HEPES buffer to remove excess dye leaving 100 μl in each well. Plates were re-equilibrated to 37° C. for a few minutes.
(§3) Cells were excited with an Argon laser at 488 nm, and emission was measured through a 510-570 nm bandwidth emission filter (FLIPR™, Molecular Devices, Sunnyvale, Calif.). Drug solution was added in a 50 µl volume to each well to give the desired final concentration. The peak increase in fluorescence intensity was recorded for each well. On each plate, four wells each served as negative (HBSS-HEPES buffer) and positive controls (standard agonists: BW245C (hDP); PGE2 (hEP1; hEP2/Gqs5; hEP3A/Gqi5; hEP4/Gqs5); PGF2α (hFP); carbacyclin (hIP); U-46619 (hTP), depending on receptor). The peak fluorescence change in each drug-containing well was then expressed relative to the controls.
(§4) Compounds were tested in a high-throughput (HTS) or concentration-response (CoRe) format. In the HTS format, forty-four compounds per plate were examined in duplicates at a concentration of 10^−5 M. To generate concentration-response curves, four compounds per plate were tested in duplicates in a concentration range between 10^−5 and 10^−11 M. The duplicate values were averaged. In either, HTS or CoRe format each compound was tested on at least 3 separate plates using cells from different passages to give an n≧3.

EP2 [2] = molecular target: T1, EP2; assay: cAMP measurement, EP2 (data in parentheses); assay type: cell-based; details: data in parentheses refer to cAMP measurement
hEP1 = molecular target: T3, hEP1 (Homo sapiens, UniProt P34995); assay: FLIPR calcium signal, HEK-293(EBNA) cells expressing hEP1; assay type: cell-based
T3 construct: expressed in transfected cells; host or cells: HEK-293(EBNA)
T3 sequence (P34995 1-402): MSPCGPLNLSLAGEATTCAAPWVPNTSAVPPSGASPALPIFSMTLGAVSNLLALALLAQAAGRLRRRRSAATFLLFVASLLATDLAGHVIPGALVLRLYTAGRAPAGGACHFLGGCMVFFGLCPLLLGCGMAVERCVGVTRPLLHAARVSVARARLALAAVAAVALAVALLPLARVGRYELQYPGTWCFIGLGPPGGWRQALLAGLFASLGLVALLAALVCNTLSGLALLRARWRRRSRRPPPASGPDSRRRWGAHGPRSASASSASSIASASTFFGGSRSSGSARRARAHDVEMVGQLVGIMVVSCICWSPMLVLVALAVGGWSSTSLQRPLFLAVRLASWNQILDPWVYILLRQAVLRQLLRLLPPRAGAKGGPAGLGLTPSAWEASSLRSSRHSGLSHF
Protocol: as §1, §2, §3, §4

T2 sequence (P35408 whole entry): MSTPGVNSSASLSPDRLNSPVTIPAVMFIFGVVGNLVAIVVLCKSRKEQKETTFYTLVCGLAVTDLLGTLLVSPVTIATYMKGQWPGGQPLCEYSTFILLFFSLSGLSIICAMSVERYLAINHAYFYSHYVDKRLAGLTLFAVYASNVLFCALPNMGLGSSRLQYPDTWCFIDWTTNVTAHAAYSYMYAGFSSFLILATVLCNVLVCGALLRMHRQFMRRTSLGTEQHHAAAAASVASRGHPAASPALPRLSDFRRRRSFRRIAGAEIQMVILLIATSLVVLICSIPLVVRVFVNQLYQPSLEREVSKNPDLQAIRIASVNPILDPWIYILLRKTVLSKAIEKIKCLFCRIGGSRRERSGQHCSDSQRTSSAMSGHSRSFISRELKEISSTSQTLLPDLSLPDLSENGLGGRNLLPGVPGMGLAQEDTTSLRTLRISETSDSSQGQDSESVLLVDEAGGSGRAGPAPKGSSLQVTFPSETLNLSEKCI
T1 sequence (P43116 whole entry): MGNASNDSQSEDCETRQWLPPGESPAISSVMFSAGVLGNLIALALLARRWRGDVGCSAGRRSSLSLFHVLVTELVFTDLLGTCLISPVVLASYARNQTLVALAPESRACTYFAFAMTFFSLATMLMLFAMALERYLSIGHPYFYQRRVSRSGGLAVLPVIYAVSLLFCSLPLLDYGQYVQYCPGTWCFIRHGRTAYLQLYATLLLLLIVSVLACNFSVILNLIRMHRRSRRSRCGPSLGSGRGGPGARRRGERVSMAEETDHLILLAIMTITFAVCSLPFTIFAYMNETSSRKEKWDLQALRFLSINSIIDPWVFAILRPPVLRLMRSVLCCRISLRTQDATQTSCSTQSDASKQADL

SMILES	Ki (EP2 [1])	Ca2+ Signal-EC50(nM) EP4 (hEP4/Gqs5)	EC50 (EP2 [2])	Ca2+ Signal-EC50(nM) EP1 (hEP1)	EC50 (hEP4/Gqs5)
CCCCCC(O)c1ccc([C@@H]2[C@@H](C/C=C\CCCC(=O)O)CC[C@H]2Cl)cc1 (stereo partly shown) [compound 6]	401 nM	notactive	94 nM	notactive	–
CCCCCC(O)c1ccc([C@H]2C(=O)CC[C@@H]2CCCc2ccc(C(=O)O)s2)cc1 (stereo partly shown) [compound 2]	70 nM	notactive	9 nM	notactive	–
CCCCCC(O)c1ccc([C@@H]2[C@@H](CCCc3ccc(C(=O)O)s3)CCC2(Cl)Cl)cc1 (stereo partly shown) [compound 3]	89 nM	notactive	3 nM	notactive	–
CCCCCC(O)c1ccc([C@H]2C(=O)CC[C@@H]2CCCc2ccc(C(=O)O)s2)cc1 (stereo partly shown) [compound 1]	43 nM	–	5 nM	notactive	> 10000 nM
CCCCCC(O)c1ccc([C@@H]2[C@@H](C/C=C\CCCC(=O)O)CC[C@H]2O)cc1 (stereo partly shown) [compound 7]	2310 nM	–	73 nM	notactive	> 10000 nM
CCCCCC(O)c1ccc([C@H]2C(=O)C=C[C@@H]2CCCc2ccc(C(=O)O)s2)cc1 (stereo partly shown) [compound 11]	173 nM	–	9 nM	notactive	> 10000 nM
CCCCCC(O)c1ccc([C@H]2C(=O)CC[C@@H]2C/C=C\CCCC(=O)O)cc1 (stereo partly shown) [compound 5]	1050 nM	notactive	34 nM	notactive	–
